Experimental data taken from patent US20030158267A1, “Method and compositions for inhibiting the scent tracking ability of biting midges” (priority 2002, published 2003).

Tested on: biting midges (Culicoides furens)
Experiment: Competitive field test: biting midges attracted to, killed by and collected in a CO2/octenol-baited heated electrical grid device, with or without test compound emitted
Type: in vivo
Settings: for Midges collected: linalool 1 mg/hr; for Reduction of average biting midge kill counts: over three trials, linalool 1 mg/hr vs no linalool
Experimental: A device comprising a cylindrical housing essentially shaped like an opened one-gallon paint can, was equipped to release determinable amounts of one or more of CO2, octenol and test compound of this invention. The device housing was equipped (covered) at it its open end with an electrical grid operating at a temperature of approximately 110° F. (44° C.) for killing any midges attracted to the grid and thereby collecting the killed midges in the housing. With the device in operation, biting midges would be attracted by the scent of CO2 and/or octenol eminating from the interior of the housing and from the heat of the electrical grid. Then, with the additional introduction of test compound from the housing it was possible to determine the inhibiting effect of the test compound by determining the decrease in biting midges attracted and killed by the teat device. The test was conducted in a designated test area known for its abundance of biting midges along the Indian River in Vero Beach, Fla. at the U.S. Department of Agriculture test facility. Competitive tests were conducted over a twelve day period in September.. During Days 1 to 3 and 7 to 9 the test conditions of the test device were set to mimic a bird as the target, namely the device emitted 50 cc/min CO2 and no octenol, and during Days 4 to 6 and 10 to 12 the test conditions were set to mimic a mammal as the target, namely the device emitted 50 cc/min CO2 and 7 mg/hr octenol. In these competitive tests, the inhibiting compound was either not emitted (Days 1 to 6) or emitted (Days 7 to 12). The test then determined the number of midges killed and collected in the device without the test compound present, and the number of midges killed and collected in the device with the test compound present in order to determine the ability of the test compound to inibit the ability of the biting midges (Culicoides furens) to sense the […] target.

What does the source list for C=CC(C)(O)CCC=C(C)C (centres unmarked) [Linalool, linalool]?
Midges collected (Day 7, device mimicking a bird: CO2 50 cc/min, octenol 0 mg/hr): 13; Midges collected (Day 8, device mimicking a bird: CO2 50 cc/min, octenol 0 mg/hr): 5; Midges collected (Day 9, device mimicking a bird: CO2 50 cc/min, octenol 0 mg/hr): 14; Midges collected (Day 10, device mimicking a mammal: CO2 50 cc/min, octenol 7 mg/hr): 29; Midges collected (Day 11, device mimicking a mammal: CO2 50 cc/min, octenol 7 mg/hr): 81; Midges collected (Day 12, device mimicking a mammal: CO2 50 cc/min, octenol 7 mg/hr): 364; Midges collected, total (Days 7-9 total, bird mimic: CO2 50 cc/min, no octenol, linalool 1 mg/hr (without linalool, days 1-3: total 176)): Total 32; Midges collected, Avg./day (Days 10-12 average per day, mammal mimic: CO2 50 cc/min, octenol 7 mg/hr, linalool 1 mg/hr (without linalool: 1137)): Avg./day 158; Midges collected, total (Days 10-12 total, mammal mimic: CO2 50 cc/min, octenol 7 mg/hr, linalool 1 mg/hr (without linalool, days 4-6: total 3410)): Total 474; Reduction of average biting midge kill counts (device mimicking a bird (CO2 50 cc/min, no octenol)): 81%; Reduction of average biting midge kill counts (device mimicking a mammal (CO2 50 cc/min, octenol 7 mg/hr)): 86%
